Reference: a melting point compilation (Tetko et al.; mined from patent text by program, amines drawn as free bases though some values may be those of a salt)

Compound | melting point
CON(C)C(=O)CCc1nnc(-c2ccc3c(c2)CCO3)o1 | 112 to 113 °C
CC(=O)C(=[N+]=[N-])C(=O)NCCO | 69 to 70 °C
CSc1nnc(-c2snnc2C)o1 | 65 °C
CC=C1CCC(C(=O)OC)C(C(=O)OC)C1 (centres undefined) | 162 to 163 °C
CCOP(=O)(OCC)Oc1c(C2CCN(CCCCNC(=O)c3ccc(-c4ccc(C#N)cc4)cc3)CC2)ccc2c1CCCC2 | 90 °C
c1ccc(-c2nc3n(n2)Cc2ccccc2-3)cc1 | 156 to 158 °C
CCOC(=O)NC(=N)NCCSCc1[nH]cnc1C | 196 to 197 °C
COCc1noc(-c2ncn3c2CN(C)C(=O)c2cc(F)ccc2-3)n1 | 192 to 194 °C
COC(=O)c1cc(-c2ccc(C)c(C)c2)n(Cc2ccc(F)cc2)n1 | 93 °C
Cc1c(NC(=O)CC(C)(C)C)c(C)c(C(C)(C)O)c2c1C(c1ccc(C(C)C)cc1)CO2 (centres undefined) | 133 to 134 °C
c1ccc(SCCn2c(-c3ccccc3)nc3cc(CN4CCN(C(c5ccccc5)c5ccccc5)CC4)ccc32)cc1 | 118 to 125 °C
NC(=O)C(F)(F)C(F)(F)C(F)(F)C(F)(F)C(F)(F)C(F)(F)C(F)(F)F | 136 to 137 °C
CC(C)n1nc(-c2nc(Oc3ccc(F)cc3)c(N)nc2-c2ccccc2)ccc1=O | 173 to 175 °C
O=C(C#CCN1C(=O)c2ccccc2C1=O)Nc1nnc(SCc2ccccc2)s1 | 128 to 131 °C
O=C/C=C/C1=C(c2ccc(F)cc2)C=C(c2ccc(F)cc2)CC12CCCC2 | 120 to 124 °C
O=C1C=CC(=O)N1c1ccc(S(=O)(=O)C(I)I)cc1 | 217 °C
O=C1c2ccccc2C(=O)N1CCCCc1ccccc1 | 87 to 90 °C
O=C(O)C(=O)c1ccc(OCCOC2CCCCCCC2)cc1 | 64 to 65 °C
COC(=O)c1ccc(Cl)cc1NC(=O)CSc1cccc(C)c1 | 75 to 77 °C
Cc1cc(NC(C)(C)C)nc(Cl)c1C#N | 109 °C
C[C@]12C[C@H](c3ccc(OCCCCCS(=O)(=O)CCCC(F)(F)C(F)(F)F)cc3)[C@@H]3c4ccc(OC5CCCC5)cc4CC[C@H]3[C@@H]1CC[C@@H]2O | 166 °C
CN1CCC(N(C)c2ncc3ncnc(Nc4cccc([N+](=O)[O-])c4)c3n2)CC1 | 199 to 203 °C
O=C(N[C@H](Cc1ccc(C(F)(F)F)cc1)[C@@H](O)c1ccc(F)cc1)c1cccc2c1C(=O)c1ccccc1-2 (racemic) | 185 to 186 °C
CCCOc1ccc(S(=O)(=O)Nc2ccc3[nH]ncc3c2)cc1-c1nc2cc(N)c(N)cc2c(=O)[nH]1 | 261 to 263 °C
CCOC(=O)C1=C(C(F)(F)F)Nc2n[nH]c(C)c2C1c1ccccc1Cl (centres undefined) | 165 to 168 °C
CN(C)c1ccc(C=Cc2ccc(S(=O)(=O)CCCCCCCCCCCO)cc2)cc1 | 153 to 155 °C
COC(=O)/C=C(\c1ccccc1)c1ccc2c(c1)C(C)(C)OC(=O)N2 | 181 to 182 °C
CCCNC(=O)[C@H](Cc1ccccc1)NC(=O)CNC(=O)OC(C)(C)C | 166 to 168 °C
CC(C)n1nc(-c2c(-c3ccccc3)nc(N)nc2-n2ccnc2)ccc1=O | 255 to 258 °C
COC(=O)c1[nH]c2c(C)ccc(C)c2c1Cl | 115 to 116 °C

Further lines, results first:

melting point | Compound
194 to 197 °C | COc1cc(C(=O)N2CCc3nnc(NN)cc3C2)cc(OC)c1OC
140 to 142 °C | CCCc1nn(C)c2c(=O)n(CCOc3cccc(OC(C)(C)C(=O)O)c3)c(C)nc12
165 °C | COc1ccc2c(c1)c(SC)c(C(=O)O)n2C
91 to 93 °C | COc1cc(OC)cc(C(=CC#N)c2ccc(OC)c(F)c2)c1
165 to 168 °C | CNC(=O)c1nc(-c2ccccc2)c(-c2ccc(=O)n(C(C)C)n2)s1
> 300 °C | O=C(O)c1c2c(nc3ccc(Br)cc13)-c1ccc(-c3ccccc3F)cc1CCC2
71 to 74 °C | Nc1ccc2c(c1)OCC21C(=O)N(CC2CCCO2)c2ccccc21 (centres undefined)
196 to 198 °C | CN1CCc2c(cccc2NC(=O)c2ccccc2[N+](=O)[O-])C1
105 to 107 °C | Cc1cnc(C(=O)O)cc1C(c1cc(F)ccc1F)S(=O)(=O)c1ccc(Cl)cc1 (centres undefined)
130 to 131 °C | COC(=C(C#N)C(=O)C(C)(C)C)c1ccc(Cl)cc1[N+](=O)[O-]
132 to 133 °C | CCCCCCCCNC(=O)Nc1ccc(Nc2ccc(N(CC)CCNS(C)(=O)=O)cc2C)c2ccccc12
141 °C | CC(C)(C)OC(=O)N[C@H]1CC[C@H](CCN2CCN(c3nccc4c3OCC4)CC2)CC1
42 to 43 °C | COCOc1ccc(C=O)c2cccc(C)c12
166 to 167 °C | CC(C)(C)c1ccc(Oc2nc(-c3ccc(Cl)cc3)c(CCC(=O)O)o2)cc1
73.5 to 75 °C | O=S(=O)(CC(F)(F)F)Oc1cccc(OS(=O)(=O)CC(F)(F)F)c1OS(=O)(=O)CC(F)(F)F
182 to 183 °C | CCN1C=C(C(=O)O)C(=O)CC1c1ccc(OC)c(OC)c1 (centres undefined)
255 to 257 °C | Cc1cc2c(Cl)nc(N)nc2o1
78 to 79 °C | COc1ccc(Br)c2cc(C(=O)c3cccc(C(F)(F)F)c3)oc12
125 to 127 °C | Cc1ncn(C)c1CO
197 °C | CCOc1ccc2c(c1)n(C1CCCCC1)c(=O)n2S(=O)(=O)c1ccc(NC(=O)Oc2ccccc2)cc1OC

melting point | Compound
230 to 234 °C | O=C(N[C@@H](Cc1ccccc1)C(=O)N1CCS(=O)CC1)c1cc2cc(Cl)ccc2[nH]1
198 to 199 °C | Cc1ccc(C(=O)N[C@H](Cc2ccc(C(F)(F)F)cc2)[C@@H](O)c2ccc(F)cc2)c2ccccc12 (racemic)
98 to 100 °C | O=C(O)C(O)c1cccc(OCc2ccccc2Cl)c1OCc1ccccc1Cl (centres undefined)
208 to 209 °C | COc1ccc(CCc2c(Cl)cncc2Cl)c2cc(C#N)nn12
93.5 to 94.5 °C | COc1ccc2c(c1)OCC(c1ccc(F)cc1)C2c1ccc(OCCN2CCCCC2)cc1 (centres undefined)
87 to 88 °C | COCc1cc(Oc2ccc3c(C(=O)OC)cccc3c2)ncn1
235 to 237 °C | Nc1nc2cc(Cl)c(Cl)cc2nc1-c1cccs1
259 to 262 °C | CC(C)(C)C(=O)Nc1ccccc1C(c1ccc(O)cc1)c1ccc(O)cc1
199 to 201 °C | C[C@@H]1S[C@@H](C(=O)Nc2ccc(CN3CCC(=O)CC3)cc2)Cc2cc3c(cc2C1=O)OCO3
112 °C | CCOC(=O)CC(=O)c1cc(Oc2ccccc2)c(NS(C)(=O)=O)cc1O
293 to 294 °C | COc1ccc2c(c1)S(=O)(=O)c1nccnc1N2
165 to 166 °C | Cc1cccc(C(O)c2ccc(N)cc2)n1 (centres undefined)
142 to 147 °C | NC1=NN(c2ccc(Cl)cn2)C(c2ccccc2)C1 (centres undefined)
214 to 220 °C | Cc1nc2ccc(S(=O)(=O)n3c(CCCC(=O)O)cc4cc(C(F)(F)F)ccc43)cc2o1
118 °C | COc1ccc(COCn2cc(Cl)cnc2=O)cc1
124 to 125 °C | Cc1cc(C)c2c(c1C)OC(C)(C)C2c1ccc(N(C)C)cc1 (centres undefined)
147 to 149 °C | CCOC(=O)C1=C(C)NC(CC)=C(C(=O)OCC)C1c1cc([N+](=O)[O-])ccc1OCCCCCl (centres undefined)
118 to 119 °C | O=[N+]([O-])c1cnc2ccccc2c1Cl
206 to 209 °C | CC(C(=O)O)c1ccc2c(c1)Cc1cc([N+](=O)[O-])ccc1-2 (centres undefined)
